# Source: patent US20160151335A1, “METHODS OF MODULATING CFTR ACTIVITY” (PROTEOSTASIS THERAPEUTICS, INC., priority 2013, published 2016)
# Key:
# [1] = molecular target: T1, ΔF508-CFTR (Homo sapiens, UniProt P13569, DEL508-508); test: Ussing chamber short-circuit current measurement, CFTRinh-172-inhibitable current; type: cell-based; conditions: 24 h, primary hBE cells homozygous ΔF508, relative to VX-809 (1 uM); for Solo % VX809 (Ussing activity): compound at 10 uM alone; for Combination % VX809 (Ussing activity): compound at 10 uM with VX-809 at 1 uM
# T1 construct: Primary lung epithelial cells (hBEs) homozygous for the Cystic Fibrosis-causing ΔF508 mutation; endogenous in cells; host or cells: primary lung (bronchial) epithelial cells (hBE) homozygous for ΔF508, differentiated at an air-liquid interface
# Method: Primary lung epithelial cells (hBEs) homozygous for the Cystic Fibrosis-causing ΔF508 mutation were differentiated for a minimum of 4 weeks in an air-liquid interface on SnapWell filter plates prior to the Ussing measurements. Cells were apically mucus-washed for 30 minutes prior to treatment with compounds. The basolateral media was removed and replaced with media containing the compound of interest diluted to its final concentration from DMSO stocks. Treated cells were incubated at 37° C. and 5% CO2 for 24 hours. At the end of the treatment period, the cells on filters were transferred to the Ussing chamber and equilibrated for 30 minutes. The short-circuit current was measured in voltage clamp-mode (Vhold=0 mV), and the entire assay was conducted at a temperature of 36° C.-36.5° C. Once the voltages stabilized, the chambers were clamped, and data was recorded by pulse readings every 5 seconds. Following baseline current stabilization, the following additions were applied and the changes in current and resistance of the cells monitored: • 1. Benzamil to the apical chamber to inhibit ENaC sodium channel. • 2. Forskolin to both chambers to activate ΔF508-CFTR by phosphorylation. • 3. Genistein to both chambers to potentiate ΔF508-CFTR channel opening. • 4. CFTRinh-172 to the apical chamber to inhibit ΔF508-CFTR Cl− conductance.
# The inhibitable current (that current that is blocked by CFTRinh-172) was measured as the specific activity of the ΔF508-CFTR channel, and increases in response to compound in this activity over that observed in vehicle-treated samples were identified as the correction of ΔF508-CFTR function imparted by the compound tested. ++ indicates activity ≧25% of VX-809 (1 uM) with compound at 10 uM and VX-809 at 1 uM; ** indicates activity ≧200% of VX-809 (1 uM) with compound at 10 uM and VX-809 at 1 uM; ** indicates activity 100-200% of VX-809 (1 uM) with compound at 10 uM and VX-809 at 1 uM; The transepithelial resistance (TER) for these compounds are within 30% of DMSO controls.
# [2] = molecular target: T1, ΔF508-CFTR; test: hBE equivalent current (Ieq) assay, AUC of equivalent chloride current; type: cell-based; conditions: compound at 10 uM, 24 h, primary hBE cells homozygous ΔF508; AUC increase relative to VX-809 at 1 uM
# Method: Primary lung epithelial cells homozygous for the Cystic Fibrosis-causing ΔF508 mutation were differentiated for a minimum of 4 weeks in an air-liquid interface on Costar 24 well HTS filter plates prior to the equivalent current (Ieq) measurements. Cells were apically mucus-washed for 30 minutes 24 h prior to treatment with compounds. The basolateral media was removed and replaced with media containing the compound of interest diluted to its final concentration from DMSO stocks. Treated cells were incubated at 37° C. and 5% CO2 for 24 hours. At the end of the treatment period, the media was changed to the Ieq experimental solution for 30 minutes before the experiment and plates are maintained in a CO2-free incubator during this period. The plates containing the cells were then placed in pre-warmed heating blocks at 36° C.±0.5 for 15 minutes before measurements are taken. The transepithelial voltage (VT) and conductance (GT) were measured using a custom 24 channel current clamp (TECC-24) with 24 well electrode manifold. The Ieq assay measurements were made following additions with standardized time periods: • 1. The baseline VT and GT values were measured for approximately 20 minutes. • 2. Benzamil was added to block ENaC for 15 minutes. • 3. Forskolin plus VX-770 were added to maximally activate ΔF508-CFTR for 27 minutes. • 4. Bumetanide was added to inhibit the NaK2Cl cotransporter and shut-off secretion of chloride. The activity data captured was the area under the curve (AUC) for the traces of the equivalent chloride current. The AUC was collected from the time of the forskolin/VX-770 addition until the inhibition by bumetanide addition. Correction in response to compound treatment was scored as the increase in the AUC for compound-treated samples over that of vehicle-treated samples. (++ indicates activity ≧25% run at 10 uM of VX-809 at 1 uM, + indicates activity 10 to ≦25% run at 10 uM of VX-809 at 1 uM.
# T1 sequence (P13569 with tags, fused parts or gaps DEL508-508): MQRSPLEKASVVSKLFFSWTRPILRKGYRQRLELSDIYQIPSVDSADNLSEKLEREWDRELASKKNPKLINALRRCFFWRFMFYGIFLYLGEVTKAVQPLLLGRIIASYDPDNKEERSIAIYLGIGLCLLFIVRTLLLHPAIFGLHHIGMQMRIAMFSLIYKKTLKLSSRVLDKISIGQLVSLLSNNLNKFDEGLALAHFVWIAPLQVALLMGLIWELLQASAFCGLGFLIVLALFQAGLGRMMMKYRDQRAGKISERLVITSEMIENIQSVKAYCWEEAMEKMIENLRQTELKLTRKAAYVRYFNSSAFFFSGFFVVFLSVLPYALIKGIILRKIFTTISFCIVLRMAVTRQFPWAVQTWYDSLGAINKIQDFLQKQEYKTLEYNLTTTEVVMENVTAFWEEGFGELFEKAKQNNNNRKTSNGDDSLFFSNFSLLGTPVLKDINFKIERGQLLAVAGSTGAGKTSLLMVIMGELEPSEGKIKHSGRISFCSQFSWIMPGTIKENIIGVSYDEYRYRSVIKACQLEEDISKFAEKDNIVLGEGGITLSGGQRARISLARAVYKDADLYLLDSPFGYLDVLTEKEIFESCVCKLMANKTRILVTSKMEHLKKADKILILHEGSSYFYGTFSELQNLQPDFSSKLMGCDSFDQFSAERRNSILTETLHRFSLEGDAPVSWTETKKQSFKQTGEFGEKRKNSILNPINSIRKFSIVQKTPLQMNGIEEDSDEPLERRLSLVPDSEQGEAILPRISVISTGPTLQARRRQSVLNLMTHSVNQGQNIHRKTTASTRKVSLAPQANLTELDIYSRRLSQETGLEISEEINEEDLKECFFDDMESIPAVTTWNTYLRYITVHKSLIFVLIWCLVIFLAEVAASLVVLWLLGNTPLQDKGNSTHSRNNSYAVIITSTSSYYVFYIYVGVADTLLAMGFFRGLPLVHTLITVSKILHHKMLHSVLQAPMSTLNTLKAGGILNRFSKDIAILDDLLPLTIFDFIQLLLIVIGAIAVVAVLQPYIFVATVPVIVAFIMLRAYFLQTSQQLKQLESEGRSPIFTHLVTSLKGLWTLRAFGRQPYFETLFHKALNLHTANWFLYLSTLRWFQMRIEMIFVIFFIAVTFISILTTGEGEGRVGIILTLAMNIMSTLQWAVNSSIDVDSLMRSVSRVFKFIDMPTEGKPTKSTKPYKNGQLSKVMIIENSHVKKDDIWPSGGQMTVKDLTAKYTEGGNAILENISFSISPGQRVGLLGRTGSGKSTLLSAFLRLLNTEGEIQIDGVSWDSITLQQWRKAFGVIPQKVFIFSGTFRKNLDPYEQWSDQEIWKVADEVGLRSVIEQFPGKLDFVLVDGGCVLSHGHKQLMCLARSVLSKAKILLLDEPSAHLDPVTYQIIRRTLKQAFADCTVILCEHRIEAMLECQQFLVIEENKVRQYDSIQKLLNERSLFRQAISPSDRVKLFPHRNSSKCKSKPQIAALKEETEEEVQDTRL
SMILES,Solo % VX809 (Ussing activity) [1],Ieq hBE Activity [2],Combination % VX809 (Ussing activity) [1]
Cc1cn(CCNC(=O)c2cc(-c3ccccc3)on2)nn1 [Compound 9],++ (++ indicates activity ≧25% of VX-809 (1 uM) with compound at 10 uM and VX-809 at 1 uM),,
O=C(NCCCn1ccnc1)c1cc(-c2ccccc2)on1 [Compound 16],++ (++ indicates activity ≧25% of VX-809 (1 uM) with compound at 10 uM and VX-809 at 1 uM),++ (++ indicates activity ≧25% run at 10 uM of VX-809 at 1 uM),** (** indicates activity ≧200% of VX-809 (1 uM) with compound at 10 uM and VX-809 at 1 uM)
Cn1ccnc1SCCNC(=O)c1cc(-c2ccccc2)on1 [Compound 18],++ (++ indicates activity ≧25% of VX-809 (1 uM) with compound at 10 uM and VX-809 at 1 uM),++ (++ indicates activity ≧25% run at 10 uM of VX-809 at 1 uM),** (** indicates activity ≧200% of VX-809 (1 uM) with compound at 10 uM and VX-809 at 1 uM)
CCCCNC(=O)c1cc(-c2ccc(F)cc2)on1 [Compound 342],,++ (++ indicates activity ≧25% run at 10 uM of VX-809 at 1 uM),
O=C(N[C@H]1CC[C@H](O)CC1)c1cc(-c2ccccc2)on1 [Compound 343],,+ (+ indicates activity 10 to ≦25% run at 10 uM of VX-809 at 1 uM),
Cc1nnsc1CNC(=O)c1cc(-c2ccccc2)on1 [Compound 344],,+ (+ indicates activity 10 to ≦25% run at 10 uM of VX-809 at 1 uM),
O=C(Nc1cccnc1)c1cc(-c2ccccc2)on1 [Compound 345],,+ (+ indicates activity 10 to ≦25% run at 10 uM of VX-809 at 1 uM),
O=C(NCCCCO)c1cc(-c2cccs2)on1 [Compound 349],,++ (++ indicates activity ≧25% run at 10 uM of VX-809 at 1 uM),
COCc1nc(CNC(=O)c2cc(-c3ccccc3)on2)no1 [Compound 372],,++ (++ indicates activity ≧25% run at 10 uM of VX-809 at 1 uM),
O=C(NCCNC(=O)c1cc(-c2ccccc2)on1)c1cccnc1 [Compound 373],,++ (++ indicates activity ≧25% run at 10 uM of VX-809 at 1 uM),
CCc1ncc(CCNC(=O)c2cc(-c3ccccc3)on2)s1 [Compound 374],,+ (+ indicates activity 10 to ≦25% run at 10 uM of VX-809 at 1 uM),
Cc1ncc(NCCNC(=O)c2cc(-c3ccccc3)on2)[nH]c1=O [Compound 375],,+ (+ indicates activity 10 to ≦25% run at 10 uM of VX-809 at 1 uM),
O=C(NCCn1ccnn1)c1cc(-c2ccccc2)on1 [Compound 376],,++ (++ indicates activity ≧25% run at 10 uM of VX-809 at 1 uM),
O=C(NCCn1ccnn1)c1cc(-c2cccs2)on1 [Compound 377],,++ (++ indicates activity ≧25% run at 10 uM of VX-809 at 1 uM),
